Reference: PMC11746142, “Structural plasticity of bacterial ESCRT-III protein PspA in higher-order assemblies” (Nature Structural & Molecular Biology, 2024)

Assays:
[1] = biological target: T1, PspA (SynPspA, PspA wild type, slr1188) (Synechocystis sp. PCC 6803, UniProt P74717); assay: inhibition of ATPase activity; assay type: biochemical; conditions: high concentration needed; against ATP hydrolysis; non-hydrolysable analogue
T1 construct: gene im30; 28 kDa band

[2] = biological target: T1, PspA (SynPspA, PspA wild type, slr1188); assay: cryo-EM structure of helical rods; assay type: binding; conditions: rods refolded with 2 mM ATP, 4 mM MgCl2; ADP modelled in weak density, incomplete occupancy; site near α3/α4 loop between four chains; 180, 200, 215, 235 Å rods
[3] = biological target: T1, PspA (SynPspA, PspA wild type, slr1188); assay: malachite-green phosphate release; ADP-Glo; bound nucleotide by HPLC-MS/MS; assay type: biochemical; conditions: 2 mM ATP, 4 mM MgCl2, 10 mM Tris-HCl pH 8.0, 37 °C
[4] = biological target: T2, PspA (SynPspA, PspA wild type, slr1188) (Synechocystis sp. PCC 6803, UniProt P74717, R44K/E126Q/E179Q); assay: bound nucleotide by HPLC-MS/MS after washing; malachite-green ATPase; assay type: biochemical; conditions: 2 mM ATP, 4 mM MgCl2, 10 mM Tris-HCl pH 8.0, 37 °C, 24 h
T2 construct: gene im30; 28 kDa band
T2 sequence (P74717 entry or part of it R44K/E126Q/E179Q): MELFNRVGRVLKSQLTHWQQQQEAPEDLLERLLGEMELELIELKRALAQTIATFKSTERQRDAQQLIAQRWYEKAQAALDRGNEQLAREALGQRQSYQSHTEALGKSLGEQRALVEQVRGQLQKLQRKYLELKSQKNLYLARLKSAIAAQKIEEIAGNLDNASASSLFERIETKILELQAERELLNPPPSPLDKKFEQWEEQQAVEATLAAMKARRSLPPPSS

PspF(1–275) (EcoPspF) = biological target: T3, PspF(1–275) (EcoPspF) (Escherichia coli, UniProt P37344); assay: ATPase activity; assay type: biochemical; conditions: comparison ATPase
T3 construct: residues 1-275, E. coli BL21 (DE3), pET50(b)-derived plasmid, Ni-NTA purified
T3 sequence (P37344 1-275): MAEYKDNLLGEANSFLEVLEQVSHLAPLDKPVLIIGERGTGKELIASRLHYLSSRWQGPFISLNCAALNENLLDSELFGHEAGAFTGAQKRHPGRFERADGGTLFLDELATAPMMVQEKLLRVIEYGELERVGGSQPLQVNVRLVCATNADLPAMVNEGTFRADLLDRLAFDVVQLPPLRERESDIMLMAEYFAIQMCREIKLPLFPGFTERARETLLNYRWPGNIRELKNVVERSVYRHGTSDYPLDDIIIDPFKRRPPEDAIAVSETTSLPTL

PspA α1–α5 = biological target: T4, PspA α1–α5 (Synechocystis sp. PCC 6803, UniProt P74717); assay: malachite-green phosphate release; ADP-Glo; assay type: biochemical; conditions: 2 mM ATP, 4 mM MgCl2, 10 mM Tris-HCl pH 8.0, 37 °C
T4 construct: gene im30; helix α0 removed (amino acids 1-23 in Methods; 'first 22 amino acids' in Results); 25 kDa band
T4 sequence (P74717 entry or part of it): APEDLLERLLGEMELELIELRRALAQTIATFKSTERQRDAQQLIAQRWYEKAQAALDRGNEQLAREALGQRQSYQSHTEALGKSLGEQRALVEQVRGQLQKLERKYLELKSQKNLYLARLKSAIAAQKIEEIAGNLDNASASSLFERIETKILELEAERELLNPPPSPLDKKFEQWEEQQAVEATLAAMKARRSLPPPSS

[5] = biological target: T1, PspA (SynPspA, PspA wild type, slr1188); assay: inhibition of ATPase activity; assay type: biochemical; conditions: high concentration needed; against ATP hydrolysis; non-hydrolysable analogue; remark: listed apart in the source

T1 sequence (P74717 entry or part of it): as the sequence (P74717 entry or part of it R44K/E126Q/E179Q) above, with K44R, Q126E, Q179E counted along it

With `Nc1ncnc2c1ncn2[C@@H]1O[C@H](COP(=O)(O)OP(=O)(O)CP(=O)(O)O)[C@@H](O)[C@H]1O` [AMPPCP] the “ATPase activity vs AMPPCP concentration” value [1] was “could be decreased by high concentrations of ATPase inhibitors such as ATPγS or AMPPCP”.

`Nc1ncnc2c1ncn2[C@@H]1O[C@H](COP(=O)(O)OP(=O)(O)O)[C@@H](O)[C@H]1O` [ADP] was tested, and the “cryo-EM structure of helical rods” value [2] was “Models of PspA apo (PDB:7ABK) and PspA+ATP with an ADP model fitted”.

In the case of `Nc1ncnc2c1ncn2[C@@H]1O[C@H](COP(=O)(O)OP(=O)(O)OP(=O)(O)O)[C@@H](O)[C@H]1O` [ATP], the “malachite-green phosphate release; ADP-Glo; bound nucleotide by HPLC-MS/MS” value [3] is reported as “PspA can bind and hydrolyze ATP”, the “bound nucleotide by HPLC-MS/MS after washing; malachite-green ATPase” value [4] is reported as “R44K/E126Q/E179Q mutant was still capable of ATP binding and hydrolysis” and the ATPase activity (PspF(1–275) (EcoPspF)) is reported as “approximately ten times lower than bona fide AAA+ ATPases, such as E. coli PspF”. For the same molecule, the “malachite-green phosphate release; ADP-Glo” value (PspA α1–α5) was “did not significantly reduce the ATPase activity”.

With `Nc1ncnc2c1ncn2[C@@H]1O[C@H](COP(=O)(O)OP(=O)(O)OP(O)(O)=S)[C@@H](O)[C@H]1O` [ATPγS] the “ATPase activity vs ATPγS concentration” value [5] was “could be decreased by high concentrations of ATPase inhibitors such as ATPγS or AMPPCP”.
